≈ marks a conversion by molar mass, not a printed value. Residues, ends and D or L forms follow the SMILES beside them.
Key:
HEK293 cell line = assay type: cell-based; conditions: 48 h
Method in brief: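 HEK293 cells seeded at 2 × 10³/well, incubated 48 h at 37 °C with serially diluted compounds (stock 2 mg/mL) in DMEM with 10% FBS. AlamarBlue added at 10% final for 3–5 h; fluorescence ex 560/em 590 nm, normalized to untreated cells.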

E. coli W3110 = conditions: for MIC at pH 5.0, E. coli W3110: W3110, pH 5; for MIC at pH 7.4, E. coli W3110: W3110, pH 7.4; for MIC at pH 8.0, E. coli W3110: W3110, pH 8
A. baumannii ATCC 19606 = conditions: for MIC at pH 5.0, A. baumannii ATCC 19606: ATCC 19606, pH 5; for MIC at pH 7.4, A. baumannii ATCC 19606: ATCC 19606, pH 7.4; for MIC at pH 8.0, A. baumannii ATCC 19606: ATCC 19606, pH 8
P. aeruginosa PAO1 = conditions: for MIC at pH 5.0, P. aeruginosa PAO1: PAO1, pH 5; for MIC at pH 7.4, P. aeruginosa PAO1: PAO1, pH 7.4; for MIC at pH 8.0, P. aeruginosa PAO1: PAO1, pH 8
K. pneumoniae NCTC 418 = conditions: for MIC at pH 5.0, K. pneumoniae NCTC 418: NCTC 418, pH 5; for MIC at pH 7.4, K. pneumoniae NCTC 418: NCTC 418, pH 7.4; for MIC at pH 8.0, K. pneumoniae NCTC 418: NCTC 418, pH 8
[1] = test system: S aureus COL (methicillin-resistant Staphylococcus aureus); conditions: for MIC at pH 5.0, S aureus COL: COL (methicillin-resistant, pH 5); for MIC at pH 7.4, S aureus COL: COL (methicillin-resistant, pH 7.4); for MIC at pH 8.0, S aureus COL: COL (methicillin-resistant, pH 8)
S. maltophilia = conditions: pH 7.4
P. aeruginosa PA14 = conditions: PA14, pH 7.4
P. aeruginosa ZEM-1A = conditions: ZEM-1A, pH 7.4
E. cloacae = conditions: pH 7.4
K. pneumoniae OXA-48 = conditions: OXA-48, pH 7.4
P. aeruginosa ZEM9A = conditions: ZEM9A, pH 7.4
B. cenocepacia = conditions: pH 7.4
S. aureus Newman = conditions: Newman, pH 7.4

Structure (SMILES)	MIC at pH 5.0, E. coli W3110 (E. coli W3110) [μg/mL]	MIC at pH 7.4, E. coli W3110 (E. coli W3110) [μg/mL]	MIC at pH 8.0, E. coli W3110 (E. coli W3110)	MIC at pH 5.0, A. baumannii ATCC 19606 (A. baumannii ATCC 19606) [μg/mL]	MIC at pH 7.4, A. baumannii ATCC 19606 (A. baumannii ATCC 19606) [μg/mL]	MIC at pH 8.0, A. baumannii ATCC 19606 (A. baumannii ATCC 19606) [μg/mL]	MIC at pH 5.0, P. aeruginosa PAO1 (P. aeruginosa PAO1) [μg/mL]	MIC at pH 7.4, P. aeruginosa PAO1 (P. aeruginosa PAO1) [μg/mL]	MIC at pH 8.0, P. aeruginosa PAO1 (P. aeruginosa PAO1) [μg/mL]	MIC at pH 5.0, K. pneumoniae NCTC 418 (K. pneumoniae NCTC 418) [μg/mL]	MIC at pH 7.4, K. pneumoniae NCTC 418 (K. pneumoniae NCTC 418) [μg/mL]	MIC at pH 8.0, K. pneumoniae NCTC 418 (K. pneumoniae NCTC 418) [μg/mL]	MIC at pH 5.0, S aureus COL [1] [μg/mL]	MIC at pH 7.4, S aureus COL [1] [μg/mL]	MIC at pH 8.0, S aureus COL [1] [μg/mL]	MIC, S. maltophilia (S. maltophilia) [mg/L]	MIC, P. aeruginosa PA14 (P. aeruginosa PA14) [mg/L]	MIC, P. aeruginosa ZEM-1A (P. aeruginosa ZEM-1A) [mg/L]	MIC, E. cloacae (E. cloacae) [mg/L]	MIC, K. pneumoniae OXA-48 (K. pneumoniae OXA-48) [mg/L]	also measured
CC(C)C[C@H](NC(=O)[C@H](CCCCN)NC(=O)[C@H](CCCCNC(=O)[C@H](CC(C)C)NC(=O)[C@H](CCCCN)NC(=O)[C@H](CCCCNC(=O)[C@H](CC(C)C)NC(=O)[C@H](CCCCN)NC(=O)[C@H](CCCCNC(=O)[C@H](CC(C)C)NC(=O)[C@@H](N)CCCCN)NC(=O)[C@H](CC(C)C)NC(=O)[C@@H](N)CCCCN)NC(=O)[C@H](CC(C)C)NC(=O)[C@H](CCCCN)NC(=O)[C@H](CCCCNC(=O)[C@H](CC(C)C)NC(=O)[C@@H](N)CCCCN)NC(=O)[C@H](CC(C)C)NC(=O)[C@@H](N)CCCCN)NC(=O)[C@H](CC(C)C)NC(=O)[C@H](CCCCN)NC(=O)[C@H](CCCCNC(=O)[C@H](CC(C)C)NC(=O)[C@H](CCCCN)NC(=O)[C@H](CCCCNC(=O)[C@H](CC(C)C)NC(=O)[C@@H](N)CCCCN)NC(=O)[C@H](CC(C)C)NC(=O)[C@@H](N)CCCCN)NC(=O)[C@H](CC(C)C)NC(=O)[C@H](CCCCN)NC(=O)[C@H](CCCCNC(=O)[C@H](CC(C)C)NC(=O)[C@@H](N)CCCCN)NC(=O)[C@H](CC(C)C)NC(=O)[C@@H](N)CCCCN)C(N)=O [L-G3KL, reference compound] (HELM PEPTIDE1{K.L.K.K.L.K.K.L.K.K.L.[am]}|PEPTIDE2{K.L}|PEPTIDE3{K.L.K.K.L.K.K.L}|PEPTIDE4{K.L}|PEPTIDE5{K.L.K.K.L}|PEPTIDE6{K.L}|PEPTIDE7{K.L.K.K.L}|PEPTIDE8{K.L}$PEPTIDE1,PEPTIDE2,3:R3-2:R2|PEPTIDE3,PEPTIDE4,3:R3-2:R2|PEPTIDE5,PEPTIDE6,3:R3-2:R2|PEPTIDE7,PEPTIDE8,3:R3-2:R2|PEPTIDE1,PEPTIDE7,6:R3-5:R2|PEPTIDE1,PEPTIDE3,9:R3-8:R2|PEPTIDE3,PEPTIDE5,6:R3-5:R2$$$V2.0)	32	8	1–2 μg/mL	8	8	1	16	4	1	> 64	> 64	4	> 64	> 64	2	8 (≈ 1.76 µM)	2 to 4	4 (≈ 0.882 µM)	8 (≈ 1.76 µM)	>64	IC50 HEK293 (HEK293 cell line): 460 ± 17 mg/L (≈ 101 µM); MIC, P. aeruginosa ZEM9A (P. aeruginosa ZEM9A): 16 mg/L (≈ 3.53 µM); MIC, B. cenocepacia (B. cenocepacia): >64 mg/L; MIC, S. aureus Newman (S. aureus Newman): >64 mg/L
CC(C)C[C@@H](NC(=O)[C@H](N)CCCCN)C(=O)NCCCC[C@@H](NC(=O)[C@@H](CC(C)C)NC(=O)[C@H](N)CCCCN)C(=O)N[C@H](CC(C)C)C(=O)NCCCC[C@@H](NC(=O)[C@@H](CC(C)C)NC(=O)[C@@H](CCCCNC(=O)[C@@H](CC(C)C)NC(=O)[C@H](N)CCCCN)NC(=O)[C@@H](CC(C)C)NC(=O)[C@H](N)CCCCN)C(=O)N[C@H](CCCCN)C(=O)N[C@H](CC(C)C)C(=O)N[C@H](CC(C)C)C(=O)NCCCC[C@@H](NC(=O)[C@@H](CC(C)C)NC(=O)[C@@H](CC(C)C)NC(=O)[C@@H](CCCCN)NC(=O)[C@@H](CCCCNC(=O)[C@@H](CC(C)C)NC(=O)[C@@H](CCCCNC(=O)[C@@H](CC(C)C)NC(=O)[C@H](N)CCCCN)NC(=O)[C@@H](CC(C)C)NC(=O)[C@H](N)CCCCN)NC(=O)[C@@H](CC(C)C)NC(=O)[C@@H](CCCCNC(=O)[C@@H](CC(C)C)NC(=O)[C@H](N)CCCCN)NC(=O)[C@@H](CC(C)C)NC(=O)[C@H](N)CCCCN)C(=O)N[C@H](CC(C)C)C(=O)N[C@H](CCCCN)C(=O)N[C@H](CCCCN)C(N)=O [D-X22] (HELM PEPTIDE1{[dK].[dL].[dK].[dL].[dK].[dK].[dL].[dL].[dK].[dL].[dK].[dK].[am]}|PEPTIDE2{[CC(C)C[C@@H](NC(=O)[C@H](N)CCCCN)C(=O)NCCCC[C@@H](NC(=O)[C@@H](CC(C)C)NC(=O)[C@H](N)CCCCN)C(=O)[*:2]].[dL]}|PEPTIDE3{[dK].[dL]}|PEPTIDE4{[dK].[dL].[dK].[dL].[dK].[dK].[dL].[dL]}|PEPTIDE5{[CC(C)C[C@@H](NC(=O)[C@H](N)CCCCN)C(=O)NCCCC[C@@H](NC(=O)[C@@H](CC(C)C)NC(=O)[C@H](N)CCCCN)C(=O)[*:2]].[dL]}|PEPTIDE6{[dK].[dL]}$PEPTIDE1,PEPTIDE2,5:R3-2:R2|PEPTIDE1,PEPTIDE3,3:R3-2:R2|PEPTIDE4,PEPTIDE5,5:R3-2:R2|PEPTIDE4,PEPTIDE6,3:R3-2:R2|PEPTIDE1,PEPTIDE4,9:R3-8:R2$$$V2.0)	8	4	4 μg/mL	16	8	4	16	4	4	> 64	> 64	16	> 64	> 64	4	4 (≈ 0.914 µM)	4 (≈ 0.914 µM)	4 (≈ 0.914 µM)	8 (≈ 1.83 µM)	4 (≈ 0.914 µM)	MIC, P. aeruginosa ZEM9A (P. aeruginosa ZEM9A): 8 mg/L (≈ 1.83 µM); MIC, B. cenocepacia (B. cenocepacia): >64 mg/L; MIC, S. aureus Newman (S. aureus Newman): 64 mg/L (≈ 14.6 µM)
